Test results from patent publication US20230027361A1, “METTL3 MODULATORS” (priority 2019, published 2023).
Like-named read-outs stand apart in the source and are kept apart here.

Key:
METTL3/METTL14 = METTL3/METTL14 (Homo sapiens, UniProt Q86U44); assay: METTL3-14 Standard Enzyme Assay (METTL3 biochemical assay)
Procedure, shortened: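 Tritium transfer from ³H-SAM (100 nM) to biotinylated RNA (100 nM) captured on streptavidin flashplates and counted by scintillation. Enzyme complex (2.5 nM) with compound, 5 min preincubation, 30 min reaction at ambient temperature, HEPES pH 7.5 buffer, stopped by excess unlabeled SAM.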

MOLM-13 cells [1] = assay: MOLM-13 48 Hour Cell Proliferation Assay; type: cell-based
Procedure: MOLM-13 (DSMZ) cells were seeded at 1000 cells per well in a volume of 44 μL in a Falcon 384-well tissue culture treated clear bottom microplate in RPMI 1640 media containing 10% fetal bovine serum using a Multidrop Combi (ThermoFisher Scientific). Cells were incubated overnight at 37° C. in a humidified tissue culture incubator. The Mosquito® HTS Liquid Handler was used to make a compound/media intermediate plate by aliquoting 1 μL of compound from the initial compound dilution plate (concentrations ranging from 10.0 mM to 38.0 nM in 100% DMSO) into a V bottom 384-well screen matrix plate containing 49 μL of media containing the appropriate serum (50-fold dilution, 2% DMSO). The Apricot liquid handling system was used to transfer 6.2 μL compounds from the intermediate plate into the Falcon 384-well tissue culture plate containing 44 μL cells (10-point, 4-fold dilution spanning concentrations 25.0 μM to […], 0.25% DMSO final), and placed in a humidified tissue culture incubator at 37° C. After 48 hours, 25 μL of Cell Titer-Glo reagent (Promega) was added to each well using a Multidrop Combi. The plate was protected from light and placed on an IKA plate shaker for at 300 rpm for 10 minutes at room temperature. The plate was read on an EnVision plate reader (Perkin Elmer) using the Ultra Sensitive Luminescence protocol. Data analysis was performed by normalizing the raw luminescence units to an average of the positive control values for staurosporine (100% cell death) and the negative control values for DMSO (0% cell death). An IC50 was calculated using a 4-parameter logistic nonlinear regression model in GraphPad Prism.

MOLM-13 cells [2] = assay: MOLM-13 96 Hour Cell Proliferation Assay; type: cell-based
Procedure: MOLM-13 (DSMZ) cells were seeded at 600 cells per well in a volume of 44 μL in a Greiner Bio-One CELLSTAR™ 384 Well Polystyrene Cell Culture clear bottom microplate in RPMI 1640 media containing 10% fetal bovine serum using a Multidrop Combi (ThermoFisher Scientific). Cells were incubated overnight at 37° C. in a humidified tissue culture incubator. To prevent evaporation or to reduce edge effect, add 50 μL or more H2O to an empty plate, cover, and place on top of the cell plates. The Mosquito® HTS Liquid Handler was used to make a compound/media intermediate plate by aliquoting 1 μL of compound from the initial compound dilution plate (concentrations ranging from 10.0 mM to 38.0 nM in 100% DMSO) into Bio-One 384-well polypropylene conical bottom microplate containing 49 μL of media containing the appropriate serum (50-fold dilution, 2% DMSO, compound concentrations ranging from 200.0 μM and […]). The Apricot liquid handling system was used to transfer 6.2 μL compounds from the intermediate plate into the seeding plate containing 44 μL cells (8-fold dilution spanning concentrations 25.0 μM to […], 0.25% DMSO final), and placed in a humidified tissue culture incubator at 37° C. After 96 hours, 25 μL of Cell Titer-Glo reagent (Promega) was added to each well using an Integra liquid handling system. The plate was protected from light using TopSeal-A (Black) film over the entire plate, added White Bottom seal film on the bottom of the entire plate for a better reading on the Envision, and placed on an IKA plate shaker for at 300 rpm for 10 minutes at room temperature. The plate was read on an EnVision plate reader (Perkin Elmer) using the Ultra Sensitive Luminescence protocol. Data analysis was performed by normalizing the raw luminescence units to an average of the positive control values for staurosporine (100% cell death) and the negative control values for DMSO (0% cell death). An IC50 was calculated using a 4-parameter logistic nonlinear regression model in GraphPad Prism.

PRMT5-MEP50 = PRMT5-MEP50 (Homo sapiens, UniProt O14744); assay: PRMT5 Assay (PRMT5 biochemical assay)
Procedure, shortened: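 Radiometric methyltransferase read-out: after 60 min reaction, excess unlabelled SAM (15 μM) stops turnover and biotinylated H4 peptide (100 nM) carrying 3H-methyl from 250 nM 3H-SAM is captured on streptavidin flashplates (2 h, 25° C) for scintillation counting. Enzyme, 2.5 nM PRMT5-MEP50, was preincubated 5 min with compound in pH 8.0 Tris buffer with DTT and Tween.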

METTL1/WDR4 = METTL1/WDR4 (Homo sapiens, UniProt Q9UBP6); assay: METTL1 Assay (METTL1 biochemical assay)
Procedure, shortened: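 Radiometric methyltransfer by METTL1/WDR4 (6.25 nM f.c., 5 min preincubation) at ambient temperature in HEPES pH 7.5, KCl, MgCl2, DTT; started with 25 nM 3′-biotinylated RNA and 60 nM 3H-SAM, run 20 min, quenched with 15 μM cold SAM. Product captured on streptavidin flashplates (2 h, 25° C), counted by scintillation.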

[3] = METTL3 biochemical assay, read-out: METTL3 IC50
[4] = PRMT5 biochemical assay, read-out: PRMT5 IC50
[5] = read-out: METTL1 IC50, METTL1 biochemical assay
[6] = METTL1 biochemical assay, read-out: METTL1 IC50
[7] = read-out: METTL3 IC50, METTL3 biochemical assay
[8] = read-out: PRMT5 IC50, PRMT5 biochemical assay

Sequence of METTL3/METTL14 (Q86U44 whole entry, species assumed): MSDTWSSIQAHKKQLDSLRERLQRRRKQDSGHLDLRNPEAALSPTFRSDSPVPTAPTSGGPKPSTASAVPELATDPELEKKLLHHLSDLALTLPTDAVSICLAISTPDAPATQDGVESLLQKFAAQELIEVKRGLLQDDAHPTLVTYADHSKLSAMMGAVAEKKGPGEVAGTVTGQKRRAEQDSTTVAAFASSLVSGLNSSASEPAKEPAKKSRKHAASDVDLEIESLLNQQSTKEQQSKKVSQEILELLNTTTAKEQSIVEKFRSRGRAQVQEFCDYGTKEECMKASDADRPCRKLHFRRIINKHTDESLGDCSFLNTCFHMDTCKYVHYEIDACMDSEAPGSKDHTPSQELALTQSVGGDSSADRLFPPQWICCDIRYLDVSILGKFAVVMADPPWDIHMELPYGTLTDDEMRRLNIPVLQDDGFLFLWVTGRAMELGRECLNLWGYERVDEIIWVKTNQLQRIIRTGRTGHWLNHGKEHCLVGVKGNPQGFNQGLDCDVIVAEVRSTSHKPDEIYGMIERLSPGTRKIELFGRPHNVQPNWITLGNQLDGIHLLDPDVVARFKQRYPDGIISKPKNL
Sequence of METTL3/METTL14 (Q9HCE5 whole entry partner, species assumed): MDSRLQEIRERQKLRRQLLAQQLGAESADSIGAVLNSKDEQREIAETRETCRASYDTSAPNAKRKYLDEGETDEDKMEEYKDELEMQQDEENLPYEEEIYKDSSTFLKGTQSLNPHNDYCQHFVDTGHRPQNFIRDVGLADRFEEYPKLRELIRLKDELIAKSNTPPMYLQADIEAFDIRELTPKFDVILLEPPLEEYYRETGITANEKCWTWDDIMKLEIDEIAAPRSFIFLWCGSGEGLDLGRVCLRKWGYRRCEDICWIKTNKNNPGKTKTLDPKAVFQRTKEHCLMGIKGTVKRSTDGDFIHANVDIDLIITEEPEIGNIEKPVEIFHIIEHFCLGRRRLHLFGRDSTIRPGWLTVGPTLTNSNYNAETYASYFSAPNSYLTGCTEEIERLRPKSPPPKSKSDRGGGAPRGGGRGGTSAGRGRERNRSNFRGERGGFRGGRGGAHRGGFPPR
Sequence of PRMT5-MEP50 (O14744 whole entry): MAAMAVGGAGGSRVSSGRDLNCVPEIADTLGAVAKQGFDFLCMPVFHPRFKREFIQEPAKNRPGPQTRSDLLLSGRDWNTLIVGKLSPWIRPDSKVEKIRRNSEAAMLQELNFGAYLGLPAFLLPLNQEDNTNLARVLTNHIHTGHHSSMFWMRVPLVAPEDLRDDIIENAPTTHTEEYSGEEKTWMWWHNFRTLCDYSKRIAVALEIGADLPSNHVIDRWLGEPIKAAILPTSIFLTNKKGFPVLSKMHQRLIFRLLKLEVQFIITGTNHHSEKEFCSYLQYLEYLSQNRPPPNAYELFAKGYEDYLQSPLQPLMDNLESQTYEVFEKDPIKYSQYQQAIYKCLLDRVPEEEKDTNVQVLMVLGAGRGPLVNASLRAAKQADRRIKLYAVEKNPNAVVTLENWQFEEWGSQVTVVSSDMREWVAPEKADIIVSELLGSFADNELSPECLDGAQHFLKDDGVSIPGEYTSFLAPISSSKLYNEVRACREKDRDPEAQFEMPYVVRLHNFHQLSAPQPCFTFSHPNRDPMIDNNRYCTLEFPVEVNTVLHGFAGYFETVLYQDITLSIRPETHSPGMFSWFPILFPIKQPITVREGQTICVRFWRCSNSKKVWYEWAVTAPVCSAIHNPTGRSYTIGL
Sequence of PRMT5-MEP50 (Q9BQA1 whole entry partner): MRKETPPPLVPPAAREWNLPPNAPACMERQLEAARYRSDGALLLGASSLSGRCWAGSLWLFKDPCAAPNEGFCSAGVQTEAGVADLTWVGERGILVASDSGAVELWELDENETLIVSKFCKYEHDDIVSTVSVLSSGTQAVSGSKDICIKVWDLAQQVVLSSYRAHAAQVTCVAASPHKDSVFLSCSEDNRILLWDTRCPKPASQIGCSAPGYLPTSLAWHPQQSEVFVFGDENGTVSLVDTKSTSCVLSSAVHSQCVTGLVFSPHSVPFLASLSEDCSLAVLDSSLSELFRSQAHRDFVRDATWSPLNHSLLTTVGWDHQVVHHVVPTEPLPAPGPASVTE
Sequence of METTL1/WDR4 (Q9UBP6 whole entry, species assumed): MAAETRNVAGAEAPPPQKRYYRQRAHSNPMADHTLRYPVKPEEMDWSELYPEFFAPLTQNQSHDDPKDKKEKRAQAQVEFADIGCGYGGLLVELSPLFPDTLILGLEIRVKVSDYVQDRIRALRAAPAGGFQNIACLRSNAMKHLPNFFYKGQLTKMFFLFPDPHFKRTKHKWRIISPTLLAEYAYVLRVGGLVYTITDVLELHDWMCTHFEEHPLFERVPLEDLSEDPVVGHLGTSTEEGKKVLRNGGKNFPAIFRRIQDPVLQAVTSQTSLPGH
Sequence of METTL1/WDR4 (P57081 whole entry partner, species assumed): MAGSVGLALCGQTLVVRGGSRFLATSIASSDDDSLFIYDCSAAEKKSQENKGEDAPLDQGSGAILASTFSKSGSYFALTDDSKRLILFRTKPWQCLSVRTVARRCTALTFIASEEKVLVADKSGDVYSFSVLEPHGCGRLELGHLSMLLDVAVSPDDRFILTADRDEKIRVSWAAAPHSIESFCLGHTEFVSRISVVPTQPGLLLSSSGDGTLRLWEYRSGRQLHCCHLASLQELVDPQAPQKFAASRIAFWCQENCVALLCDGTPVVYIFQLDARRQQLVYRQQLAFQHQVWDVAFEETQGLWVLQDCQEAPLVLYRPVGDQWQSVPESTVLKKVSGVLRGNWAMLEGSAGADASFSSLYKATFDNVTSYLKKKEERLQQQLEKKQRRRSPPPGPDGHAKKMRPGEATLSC

SMILES | IC50 (METTL3/METTL14) | IC50 (MOLM-13 cells [1]; Homo sapiens) | IC50 (MOLM-13 cells [2]; Homo sapiens) | IC50 (METTL3/METTL14; [3]) | IC50 (PRMT5-MEP50; [4]) | further results
Cn1ccc(-c2cn([C@@H]3O[C@H](COc4ccc5ccc(N6CC(N)C6)nc5c4)[C@@H](O)[C@@H]3F)c3ncnc(N)c23)n1 [I-181] | < 0.01 µM | < 1 µM | < 1 µM | – | – | IC50 (PRMT5-MEP50): > 1 µM
Nc1ncnc2c1c(-n1ccc(C(F)(F)F)n1)cn2[C@@H]1O[C@H](COc2ccc3ccc(N4CCC4)nc3c2)[C@@H](O)[C@@H]1F [I-221] | < 0.01 µM | 1 to 10 µM | 1 to 10 µM | – | – | IC50 (PRMT5-MEP50): > 1 µM
Nc1ccc2cc(CC[C@H]3C[C@@H](n4ccc5c(N)ncnc54)[C@H](O)[C@@H]3O)ccc2n1 [I-125] | – | – | – | 0.1 to 1 µM | < 0.01 µM | IC50 (MOLM-13 cells [2]; Homo sapiens, MOLM-13, 96 h): 1 to 10 µM; IC50 (METTL1/WDR4; [5]): > 1 µM
CN(CCO)c1ccc2ccc(OC[C@H]3O[C@@H](n4cc(-c5ccn(C)n5)c5c(N)ncnc54)[C@@H](F)[C@@H]3O)cc2n1 [I-162] | < 0.01 µM | 1 to 10 µM | < 1 µM | – | – | IC50 (PRMT5-MEP50): > 1 µM
CNc1ccc2ccc(OC[C@H]3O[C@@H](n4cc(F)c5c(N)ncnc54)[C@@H](F)[C@@H]3O)cc2n1 [I-230] | – | 1 to 10 µM | – | < 0.01 µM | 0.01 to 0.1 µM | IC50 (METTL1/WDR4): > 1 µM
CNc1ccc2ccc(OC[C@H]3O[C@@H](n4cc(-c5ccc(C)cn5)c5c(N)ncnc54)[C@@H](F)[C@@H]3O)cc2n1 [I-231] | < 0.01 µM | < 1 µM | – | – | – | IC50 (PRMT5-MEP50): 0.1 to 1 µM; IC50 (METTL1/WDR4; [6]): > 1 µM
CNc1ccc2ccc(OC[C@H]3O[C@@H](n4cc(-c5cccc(C)n5)c5c(N)ncnc54)[C@@H](F)[C@@H]3O)cc2n1 [I-229] | < 0.01 µM | 1 to 10 µM | – | – | – | IC50 (PRMT5-MEP50): 0.01 to 0.1 µM; IC50 (METTL1/WDR4; [6]): > 1 µM
CNc1ccc2cc(CC[C@H]3C[C@@H](n4ccc5c(N)ncnc54)[C@H](O)[C@@H]3O)ccc2n1 [I-111] | – | – | – | 0.1 to 1 µM | < 0.01 µM | IC50 (MOLM-13 cells [2]; Homo sapiens, MOLM-13, 96 h): 1 to 10 µM; IC50 (METTL1/WDR4; [5]): > 1 µM
CNc1ccc2ccc(OC[C@H]3O[C@H](n4cc(C(O)C5CC5)c5c(N)ncnc54)[C@H](O)[C@@H]3O)cc2n1 (some centres unmarked) [I-227] | – | > 10 µM | – | < 0.01 µM | < 0.01 µM | IC50 (METTL1/WDR4): > 1 µM
Nc1ncnc2c1ccn2[C@@H]1C[C@H](CCc2ccc3nccnc3c2)[C@@H](O)[C@H]1O [I-130] | – | – | – | – | < 0.01 µM | IC50 (MOLM-13 cells [2]; Homo sapiens, MOLM-13, 96 h): < 1 µM; IC50 (METTL1/WDR4; [5]): > 1 µM
CCc1cc(NCCOC)c2ncc(OC[C@H]3O[C@@H](n4cc(-c5ccn(C)n5)c5c(N)ncnc54)[C@H](O)[C@@H]3O)cc2n1 [I-159] | < 0.01 µM | > 10 µM | 1 to 10 µM | – | – | –
CCc1cc(N(C)C)c2ccc(OC[C@H]3O[C@@H](n4cc(-c5ccn(C)n5)c5c(N)ncnc54)[C@@H](F)[C@@H]3O)cc2n1 [I-153] | < 0.01 µM | 1 to 10 µM | < 1 µM | – | – | –
CCc1cc(N2CCOCC2)c2ccc(OC[C@H]3O[C@@H](n4cc(-c5ccn(C)n5)c5c(N)ncnc54)[C@@H](F)[C@@H]3O)cc2n1 [I-156] | < 0.01 µM | 1 to 10 µM | < 1 µM | – | – | –
CCc1cc(N(C)C2CC2)c2ccc(OC[C@H]3O[C@@H](n4cc(-c5ccn(C)n5)c5c(N)ncnc54)C[C@@H]3O)cc2n1 [I-160] | < 0.01 µM | 1 to 10 µM | 1 to 10 µM | – | – | –
CNc1ccc2ccc(OC[C@H]3O[C@@H](n4cc(-c5ccn(C6COC6)n5)c5c(N)ncnc54)[C@@H](F)[C@@H]3O)cc2n1 [I-144] | – | 1 to 10 µM | – | – | – | IC50 (METTL3/METTL14; [7]): < 0.01 µM; IC50 (PRMT5-MEP50; [8]): 0.1 to 1 µM; IC50 (METTL1/WDR4; [6]): > 1 µM
C=CCc1cn([C@@H]2O[C@H](COc3ccc4ccc(NC)nc4c3)[C@@H](O)[C@H]2O)c2ncnc(N)c12 [I-226] | – | < 1 µM | – | < 0.01 µM | < 0.01 µM | IC50 (METTL1/WDR4): > 1 µM
CCc1cc(N(C)CC2CC2)c2ccc(OC[C@H]3O[C@@H](n4cc(-c5ccn(C)n5)c5c(N)ncnc54)[C@@H](F)[C@@H]3O)cc2n1 [I-155] | < 0.01 µM | 1 to 10 µM | < 1 µM | – | – | –
CNc1ccc2ccc(OC[C@H]3O[C@@H](n4cc(-c5ccn(C6CCC6)n5)c5c(N)ncnc54)[C@@H](F)[C@@H]3O)cc2n1 [I-143] | – | 1 to 10 µM | – | < 0.01 µM | 0.1 to 1 µM | IC50 (METTL1/WDR4; [6]): > 1 µM
CCNc1ccc2ccc(OC[C@H]3O[C@@H](n4cc(-c5ccn(C)n5)c5c(N)ncnc54)[C@@H](F)[C@@H]3O)cc2n1 [I-7] | – | – | – | – | – | IC50 (METTL3/METTL14; [7]): < 0.01 µM; IC50 (MOLM-13 cells [2]; Homo sapiens, MOLM-13, 96 h): < 1 µM; IC50 (PRMT5-MEP50; [8]): 0.01 to 0.1 µM; IC50 (METTL1/WDR4; [6]): > 1 µM
Nc1ncnc2c1c([C@H]1CCCO1)cn2[C@@H]1O[C@H](COc2ccc3ccc(N4CCC4)nc3c2)[C@@H](O)[C@@H]1F [I-225] | – | – | – | – | > 1 µM | IC50 (MOLM-13 cells [1]): 1 to 10 µM; IC50 (MOLM-13 cells [2]): 1 to 10 µM
CNc1ccc2ccc(OC[C@H]3O[C@@H](n4cc(CC5CC5)c5c(N)ncnc54)[C@H](O)[C@@H]3O)cc2n1 [I-142] | – | 1 to 10 µM | – | < 0.01 µM | 0.01 to 0.1 µM | IC50 (METTL1/WDR4; [5]): > 1 µM
CCn1ccc(-c2cn([C@@H]3O[C@H](COc4ccc5ccc(NC)nc5c4)[C@@H](O)[C@@H]3F)c3ncnc(N)c23)n1 [I-3] | – | – | < 1 µM | – | – | IC50 (METTL3/METTL14; [7]): < 0.01 µM; IC50 (PRMT5-MEP50; [8]): 0.01 to 0.1 µM
CCc1cc(N(C)C2CC2)c2ccc(OC[C@H]3O[C@@H](n4cc(-c5ccn(C)n5)c5c(N)ncnc54)[C@@H](F)[C@@H]3O)cc2n1 [I-154] | < 0.01 µM | 1 to 10 µM | 1 to 10 µM | – | – | –
